# Laboratory results as given in ChEMBL document CHEMBL5665443, “Enzyme Inhibitor Single Concentration assay results for EUbOPEN Chemogenomics Library” (2024).
# Where a SMILES comes first, the peptide text is derived from it. [ ]: non-standard residue; d: D form. Arg(Me) = CNC(=N)NCCC[C@H](N)C(=O)O; d4Pal = N[C@H](Cc1ccncc1)C(=O)O; azaGly = NNC(=O)O
# Assays:
# Conditions in all cases: Hit No
# [1] = target: T1, Single-strand selective monofunctional uracil DNA glycosylase (Homo sapiens) (UniProt Q53HV7);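 note: enzymatic SMUG1 assay coupled with APE1, reading fluorescence at 594 nm released when a quenched double-stranded DNA oligonucleotide substrate is cleaved and separated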
# T1 sequence (whole entry): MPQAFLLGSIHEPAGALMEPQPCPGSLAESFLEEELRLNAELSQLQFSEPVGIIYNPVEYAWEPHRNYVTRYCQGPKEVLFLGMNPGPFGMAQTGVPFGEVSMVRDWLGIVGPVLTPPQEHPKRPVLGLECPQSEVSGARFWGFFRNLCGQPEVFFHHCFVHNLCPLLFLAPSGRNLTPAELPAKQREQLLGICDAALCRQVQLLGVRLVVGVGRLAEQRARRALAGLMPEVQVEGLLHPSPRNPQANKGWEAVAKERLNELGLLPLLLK
# Description: Inhibition of SMUG1 by quantifying inhibition of SMUG1-mediated cleavage and dissociation of quenched duplex DNA oligonucleotides, measured as fluorescence at 594 nm. To generate a functional strand incision and increase turn-over this assay is coupled to APE1.
# [2] = target: T2, Endonuclease 8-like 2 (Homo sapiens) (UniProt Q969S2);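 note: fluorescence at 594 nm reports NEIL2 cutting and release of a quenched double-stranded DNA oligo substrate, reduced signal read as inhibition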
# T2 sequence (whole entry): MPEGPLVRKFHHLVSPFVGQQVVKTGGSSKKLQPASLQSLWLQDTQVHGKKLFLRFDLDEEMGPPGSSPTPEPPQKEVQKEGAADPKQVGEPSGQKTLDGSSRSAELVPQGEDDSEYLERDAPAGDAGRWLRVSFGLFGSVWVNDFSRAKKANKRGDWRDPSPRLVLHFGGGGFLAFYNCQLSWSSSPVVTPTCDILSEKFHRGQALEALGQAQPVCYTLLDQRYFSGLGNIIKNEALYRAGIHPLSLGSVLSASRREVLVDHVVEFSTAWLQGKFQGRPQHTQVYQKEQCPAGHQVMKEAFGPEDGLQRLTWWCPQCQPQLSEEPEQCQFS
# Description: Inhibition of NEIL2 by quantifying inhibition of NEIL2-mediated cleavage and dissociation of quenched duplex DNA oligonucleotides, measured as fluorescence at 594 nm.
# [3] = target: Endonuclease 8-like 1 (Homo sapiens) (UniProt Q96FI4);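 note: fluorescence at 594 nm from quenched duplex DNA oligonucleotides released by NEIL1 cleavage and strand separation, reported as reduction of this enzyme activity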
# Description: Inhibition of NEIL1 by quantifying inhibition of NEIL1-mediated cleavage and dissociation of quenched duplex DNA oligonucleotides, measured as fluorescence at 594 nm.
# [4] = target: Uracil-DNA glycosylase (Homo sapiens) (UniProt P13051);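 note: UNG excision on a quenched double-stranded DNA oligo probe, with APE1 added for strand incision and turnover, read as fluorescence at 594 nm as strands separate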
# Description: Inhibition of UNG by quantifying inhibition of UNG-mediated cleavage and dissociation of quenched duplex DNA oligonucleotides, measured as fluorescence at 594 nm. To generate a functional strand incision and increase turn-over this assay is coupled to APE1.
# [5] = target: G/T mismatch-specific thymine DNA glycosylase (Homo sapiens) (UniProt Q13569);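 note: human TDG cleavage of quenched duplex DNA oligonucleotides coupled to APE1, strand release read as fluorescence at 594 nm, inhibition of TDG activity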
# Description: Inhibition of TDG by quantifying inhibition of TDG-mediated cleavage and dissociation of quenched duplex DNA oligonucleotides, measured as fluorescence at 594 nm. To generate a functional strand incision and increase turn-over this assay is coupled to APE1.
# [6] = target: N-glycosylase/DNA lyase (Homo sapiens) (UniProt O15527);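 note: OGG1 cleavage of a quenched duplex DNA oligonucleotide, coupled to APE1 for strand incision, read as fluorescence at 594 nm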
# Description: Inhibition of OGG1 by quantifying inhibition of OGG1-mediated cleavage and dissociation of quenched duplex DNA oligonucleotides, measured as fluorescence at 594 nm. To generate a functional strand incision and increase turn-over this assay is coupled to APE1.
# [7] = target: T3, Endonuclease III-like protein 1 (Homo sapiens) (UniProt P78549);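 note: enzyme assay tracking NTHL1 cutting and release of a quenched double-stranded DNA oligo substrate, read as fluorescence at 594 nm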
# T3 sequence (whole entry): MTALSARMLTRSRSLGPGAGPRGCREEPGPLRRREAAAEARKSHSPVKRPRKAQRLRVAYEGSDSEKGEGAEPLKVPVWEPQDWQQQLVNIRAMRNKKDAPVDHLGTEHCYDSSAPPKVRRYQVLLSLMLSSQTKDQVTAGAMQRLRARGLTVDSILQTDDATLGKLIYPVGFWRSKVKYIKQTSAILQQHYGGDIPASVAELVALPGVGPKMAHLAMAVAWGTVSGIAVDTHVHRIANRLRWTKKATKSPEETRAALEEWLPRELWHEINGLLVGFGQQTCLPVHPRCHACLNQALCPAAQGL
# Description: Inhibition of NTHL1 by quantifying inhibition of NTHL1-mediated cleavage and dissociation of quenched duplex DNA oligonucleotides, measured as fluorescence at 594 nm.
# [8] = target: Methyl-CpG-binding domain protein 4 (Homo sapiens) (UniProt O95243);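 note: MBD4 activity read as fluorescence at 594 nm from cleavage and release of a quenched duplex DNA oligonucleotide, with APE1 coupled to incise the strand and raise turnover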
# Sequence of Methyl-CpG-binding domain protein 4 (Homo sapiens) (O95243 whole entry, the tested form may be a part): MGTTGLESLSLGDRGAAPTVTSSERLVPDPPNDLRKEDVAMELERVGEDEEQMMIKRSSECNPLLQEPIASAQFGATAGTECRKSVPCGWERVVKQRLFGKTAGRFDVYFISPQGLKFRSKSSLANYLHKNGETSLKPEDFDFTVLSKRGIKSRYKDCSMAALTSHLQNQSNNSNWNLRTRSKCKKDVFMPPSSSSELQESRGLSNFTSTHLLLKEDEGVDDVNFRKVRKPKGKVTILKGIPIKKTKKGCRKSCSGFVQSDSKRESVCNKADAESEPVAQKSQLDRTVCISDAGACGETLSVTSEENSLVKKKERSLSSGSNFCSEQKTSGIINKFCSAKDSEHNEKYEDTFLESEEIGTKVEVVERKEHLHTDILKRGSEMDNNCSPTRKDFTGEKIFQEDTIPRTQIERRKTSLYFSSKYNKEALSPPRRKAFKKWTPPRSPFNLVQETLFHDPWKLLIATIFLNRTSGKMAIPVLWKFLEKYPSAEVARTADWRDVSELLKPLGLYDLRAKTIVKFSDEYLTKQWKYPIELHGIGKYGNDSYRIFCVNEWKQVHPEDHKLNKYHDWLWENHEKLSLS
# Description: Inhibition of MBD4 by quantifying inhibition of MBD4-mediated cleavage and dissociation of quenched duplex DNA oligonucleotides, measured as fluorescence at 594 nm. To generate a functional strand incision and increase turn-over this assay is coupled to APE1.
# Sequence of N-glycosylase/DNA lyase (Homo sapiens) (O15527 whole entry): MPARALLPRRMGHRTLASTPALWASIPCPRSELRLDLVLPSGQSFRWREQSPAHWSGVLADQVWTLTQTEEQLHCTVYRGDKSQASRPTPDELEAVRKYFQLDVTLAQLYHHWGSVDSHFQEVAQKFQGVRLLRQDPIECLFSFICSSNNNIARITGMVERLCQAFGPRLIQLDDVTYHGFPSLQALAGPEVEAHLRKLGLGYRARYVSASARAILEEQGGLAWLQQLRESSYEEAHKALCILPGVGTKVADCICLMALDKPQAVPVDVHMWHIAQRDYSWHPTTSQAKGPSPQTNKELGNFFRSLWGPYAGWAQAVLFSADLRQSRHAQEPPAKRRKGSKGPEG
# Sequence of Uracil-DNA glycosylase (Homo sapiens) (P13051 whole entry): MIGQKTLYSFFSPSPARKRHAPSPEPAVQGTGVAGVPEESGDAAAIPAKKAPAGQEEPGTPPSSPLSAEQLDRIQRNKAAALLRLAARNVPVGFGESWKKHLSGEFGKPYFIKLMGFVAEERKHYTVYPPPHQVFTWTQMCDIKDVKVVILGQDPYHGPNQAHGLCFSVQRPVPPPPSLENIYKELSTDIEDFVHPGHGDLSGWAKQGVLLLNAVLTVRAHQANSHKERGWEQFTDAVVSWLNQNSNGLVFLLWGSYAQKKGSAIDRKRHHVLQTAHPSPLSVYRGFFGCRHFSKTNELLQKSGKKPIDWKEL
# Sequence of Endonuclease 8-like 1 (Homo sapiens) (Q96FI4 whole entry): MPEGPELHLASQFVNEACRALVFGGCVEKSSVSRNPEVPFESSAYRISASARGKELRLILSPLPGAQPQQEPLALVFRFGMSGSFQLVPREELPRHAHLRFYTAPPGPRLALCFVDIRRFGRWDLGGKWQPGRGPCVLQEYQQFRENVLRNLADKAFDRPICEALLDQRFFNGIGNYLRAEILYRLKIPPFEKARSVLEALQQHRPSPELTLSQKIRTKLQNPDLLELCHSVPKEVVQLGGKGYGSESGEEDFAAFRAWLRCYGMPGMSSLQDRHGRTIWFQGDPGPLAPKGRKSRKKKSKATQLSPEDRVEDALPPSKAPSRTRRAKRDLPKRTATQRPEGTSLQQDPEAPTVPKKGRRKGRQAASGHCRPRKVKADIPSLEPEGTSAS
# Sequence of G/T mismatch-specific thymine DNA glycosylase (Homo sapiens) (Q13569 whole entry): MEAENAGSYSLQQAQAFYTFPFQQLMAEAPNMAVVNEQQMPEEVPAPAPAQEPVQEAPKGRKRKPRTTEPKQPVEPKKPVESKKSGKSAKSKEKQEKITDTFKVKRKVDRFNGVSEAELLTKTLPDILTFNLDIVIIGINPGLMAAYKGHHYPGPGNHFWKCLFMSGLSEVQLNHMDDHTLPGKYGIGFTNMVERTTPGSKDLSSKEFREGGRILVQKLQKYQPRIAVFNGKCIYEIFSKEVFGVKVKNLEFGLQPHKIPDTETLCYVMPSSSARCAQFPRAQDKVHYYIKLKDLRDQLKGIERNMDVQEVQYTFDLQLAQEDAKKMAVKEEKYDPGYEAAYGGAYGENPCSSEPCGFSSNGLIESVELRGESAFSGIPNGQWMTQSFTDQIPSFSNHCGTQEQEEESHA
SMILES,inhibition ([1]; Compound Concentration 10.0 uM) [%],inhibition ([2]; Compound Concentration 10.0 uM) [%],inhibition ([3]; Compound Concentration 10.0 uM) [%],inhibition ([4]; Compound Concentration 10.0 uM) [%],inhibition ([5]; Compound Concentration 10.0 uM) [%],inhibition ([6]; Compound Concentration 10.0 uM) [%],inhibition ([7]; Compound Concentration 10.0 uM) [%],inhibition ([8]; Compound Concentration 10.0 uM) [%],inhibition ([1]; Compound Concentration 1.0 uM) [%],inhibition ([2]; Compound Concentration 1.0 uM) [%],inhibition ([3]; Compound Concentration 1.0 uM) [%],inhibition ([4]; Compound Concentration 1.0 uM) [%],inhibition ([5]; Compound Concentration 1.0 uM) [%],inhibition ([6]; Compound Concentration 1.0 uM) [%],inhibition ([7]; Compound Concentration 1.0 uM) [%],inhibition ([8]; Compound Concentration 1.0 uM) [%]
C[C@H](NC(=O)Cc1ccc(-c2ccc3cccnc3n2)cc1)c1ccc(-c2ccc(F)c(C(F)(F)F)c2)cc1,-7.59,-4.68,7.12,-4.78,8.35,5.81,14.6,22.6,–,–,–,–,–,–,–,–
CCOC(=O)c1ccc(C#Cc2ccc3c(c2)C(C)(C)CCS3)nc1,8.77,2.06,1.22,-5.12,98.1,22.7,3.31,50.8,–,–,–,–,–,–,–,–
C=CC(=O)Nc1ccc2[nH]c(=O)n(C3CCN(Cc4ccc(-c5ccc6c(c5)NC(=O)CO6)cc4)CC3)c2c1,16.7,-1.48,2.54,1.08,30.3,15.8,-2.83,22.1,–,–,–,–,–,–,–,–
Cc1cc(C)c(-n2ccn3nc(-c4cccnc4)cc23)cc1NC(=O)c1cc(C#N)cc(S(F)(F)(F)(F)F)c1,–,–,–,–,–,–,–,–,7.64,-7.9,-7.27,1.49,50.8,1.96,-3.66,40
COc1cc(-c2cncc(-c3ccc(N4CCN(C(C)C)CC4)cc3)c2C)cc(F)c1C(=O)N1CCCC1,28.7,-8.65,3.31,7.27,47.2,12.1,0.0872,0.55,–,–,–,–,–,–,–,–
COc1ccc2c(O[C@@H]3C[C@H]4C(=O)N[C@]5(C(=O)O)CC5/C=C\CCCCC[C@H](NC(=O)OC5CCCC5)C(=O)N4C3)cc(-c3csc(NC(=O)C(C)C)n3)nc2c1C (some centres not stated),-6.44,1.3,-5.14,5.79,38.5,55.8,6.6,33.3,–,–,–,–,–,–,–,–
CNC(=N)NCCC[C@H](NC(=O)[C@H](CC(C)C)NC(=O)NNC(=O)[C@H](Cc1ccccc1)NC(=O)[C@H](CO)NC(=O)[C@H](CC(N)=O)NC(=O)[C@@H](Cc1ccncc1)NC(=O)[C@H](N)Cc1ccc(O)cc1)C(=O)N[C@@H](Cc1ccccc1)C(N)=O (H-[dY][d4Pal]NSF[azaGly]L[Arg(Me)]F-NH2),19.5,6.4,-4.68,6.61,52.5,-3.16,-1.29,54,–,–,–,–,–,–,–,–
COc1cccc(Cn2cc(C(=O)Nc3ccc(C)c(S(=O)(=O)N4CCOCC4)c3)c(-c3ccc(C)cc3)n2)c1,2.42,-7.38,-9.23,-6.33,97.5,11.1,1.34,52.8,–,–,–,–,–,–,–,–
COc1ccc(CC[C@@H](OC(=O)[C@H]2CCCCN2C(=O)[C@@H](c2cc(OC)c(OC)c(OC)c2)C2CCCCC2)c2cccc(OCCN3CCOCC3)c2)cc1OC,19.6,4.61,-4.53,9.57,97,-1.2,0.685,63.9,–,–,–,–,–,–,–,–
C[C@@H](c1cccc(CN)c1)n1cc(Cl)cc(C(N)=O)c1=N,3.56,0.0213,-9.23,-0.0293,49.3,-2.92,-5.89,72.4,–,–,–,–,–,–,–,–
C=C1/C(=C\C=C2/CCC[C@]3(C)[C@@H]([C@H](C)/C=C/C=C/C(O)(CC)CC)CC[C@@H]23)C[C@@H](O)C[C@@H]1O,-1.6,15.3,0.77,0.169,28.5,-1.05,-4.57,53.8,–,–,–,–,–,–,–,–
Cc1cc(OCC(=O)O)cc(C)c1Cc1ccc(O)c(C(C)C)c1,9.54,4.61,-0.29,2.02,63,20.6,7.26,57.9,–,–,–,–,–,–,–,–
CCCOc1ccc([C@H]2[C@H](C(=O)O)[C@@H](c3ccc4c(c3)OCO4)CN2CC(=O)Nc2c(CC)cccc2CC)cc1,–,–,–,–,–,–,–,–,23,0.276,2.13,6.95,57.6,10.2,-5.23,70.6
C[C@H](NC(=O)Nc1cc2[nH]ncc2c(CO)n1)c1ccccn1,21.2,-4.78,-8.95,4.22,51.6,0.354,-0.801,22.3,–,–,–,–,–,–,–,–
O=C(O)CCC/C=C\CC1C(O)CC(O)C1/C=C/C(O)COc1cccc(Cl)c1 (configuration not stated),-7.54,-0.234,-0.0556,-7.78,2.98,-6.16,21,-2.64,–,–,–,–,–,–,–,–

# Next, values leading:
inhibition ([1]; Compound Concentration 10.0 uM) [%],inhibition ([2]; Compound Concentration 10.0 uM) [%],inhibition ([3]; Compound Concentration 10.0 uM) [%],inhibition ([4]; Compound Concentration 10.0 uM) [%],inhibition ([5]; Compound Concentration 10.0 uM) [%],inhibition ([6]; Compound Concentration 10.0 uM) [%],inhibition ([7]; Compound Concentration 10.0 uM) [%],inhibition ([8]; Compound Concentration 10.0 uM) [%],inhibition ([1]; Compound Concentration 1.0 uM) [%],inhibition ([2]; Compound Concentration 1.0 uM) [%],inhibition ([3]; Compound Concentration 1.0 uM) [%],inhibition ([4]; Compound Concentration 1.0 uM) [%],inhibition ([5]; Compound Concentration 1.0 uM) [%],inhibition ([6]; Compound Concentration 1.0 uM) [%],inhibition ([7]; Compound Concentration 1.0 uM) [%],inhibition ([8]; Compound Concentration 1.0 uM) [%],SMILES
17.5,1.31,6.35,0.982,33.2,-7.06,-8.28,-2.48,–,–,–,–,–,–,–,–,Cn1cc(-c2ccc3occ(-c4ccccc4-c4ccccc4)c3n2)cn1
3.68,-9.67,-3.77,-0.0445,39.3,-3.61,-7.86,61.4,–,–,–,–,–,–,–,–,FC(F)(F)c1ccc2c(c1)nc(-c1cccnc1)n2C1CC1
6.37,-9.67,-9.38,-1.13,36.9,3.62,-8.52,54.9,–,–,–,–,–,–,–,–,O=C(NCc1ncc(C(F)(F)F)cc1Cl)c1ccc2c(c1)C1(CCS(=O)(=O)CC1)[C@@H](C1CC1)N2S(=O)(=O)c1ccc(F)cc1
21.1,-4.32,-3.92,2.8,35.7,-2.62,1.34,49.9,–,–,–,–,–,–,–,–,Cc1cc(C(=O)N2CCN(C3CN(C(=O)c4ccc(-c5ccccc5)cc4)C3)CC2)no1
-0.636,3.73,16.8,-2.92,4.53,6.16,-6.86,-4.31,–,–,–,–,–,–,–,–,CCOC(=O)N1CCC(NS(=O)(=O)c2ccc(NC(=O)c3ccccc3C)c3ccccc23)CC1
19.9,8.19,-9.07,1.44,35.6,3.97,-9.83,51.7,–,–,–,–,–,–,–,–,Cc1c(NC(=O)c2cc(C(N)=O)nc3cc(F)ccc23)c(C(F)(F)F)nn1Cc1ccc(C#N)cc1
1.61,-1.48,-4.5,-5.14,16.4,0.771,7.79,5.84,–,–,–,–,–,–,–,–,FC(F)(F)c1c(N2CCC(c3ccccc3)CC2)ccn2c(CC3CC3)nnc12
–,–,–,–,–,–,–,–,3.33,-4.38,-6.27,-2.6,32.5,0.775,-4.24,25,CN1C(=O)[C@@H](N2CCc3c(nn(Cc4ccccc4)c3Br)C2=O)COc2ccccc21
8.89,5.12,-1.35,2.78,40.6,4.16,-3.26,47.2,–,–,–,–,–,–,–,–,CNC(=O)c1cc(C(=O)N[C@H]2[C@@H]3COC[C@@H]32)cc2c1O[C@H](CF)[C@H]2c1ccccc1
